Source: ChEMBL document CHEMBL4177647, “Conformational properties of ascydiacyclamide analogues with cyclic α-amino acids instead of oxazoline residues” (2017)
≈ marks a conversion by molar mass, not a printed value.

What was measured:
Assay type in all cases: functional
HL-60 [1] = experiment: Cytotoxicity against human HL60 cells after 72 hrs by MTT assay; conditions: HL-60, 72 h, read-out: ED50 (the source's name)
HL-60 [2] = experiment: Potency index, ratio of ED50 for Ascidiacyclamide to ED50 test compound against human HL60 cells after 72 hrs by MTT assay
P388 [3] = experiment: Cytotoxicity against mouse P388 cells after 72 hrs by MTT assay; conditions: P388, 72 h, read-out: ED50 (the source's name)
P388 [4] = experiment: Cytotoxicity against mouse P388 cells after 72 hrs by MTT assay relative to Ascidiacyclamide

Structure (SMILES)	EC50 (HL-60 [1]) [µg/mL]	Ratio ED50 (HL-60 [2])	EC50 (P388 [3]) [µg/mL]	Activity (P388 [4]) [%]
CC[C@H](C)[C@@H]1NC(=O)c2csc(n2)[C@@H](C(C)C)NC(=O)[C@@H]2CCCN2C(=O)[C@H]([C@@H](C)CC)NC(=O)c2csc(n2)[C@@H](C(C)C)NC(=O)[C@@H]2CCCN2C1=O	10.4 (≈ 13.2 µM)	3	19.4 (≈ 24.7 µM)	–
CC[C@H](C)[C@@H]1NC(=O)c2csc(n2)[C@@H](C(C)C)NC(=O)[C@H]2N=C(O[C@@H]2C)[C@H]([C@@H](C)CC)NC(=O)c2csc(n2)[C@@H](C(C)C)NC(=O)[C@H]2N=C1O[C@@H]2C [ASCIDIACYCLAMIDE]	–	–	10.5 (≈ 13.9 µM)	–
CC[C@H](C)[C@@H]1NC(=O)c2csc(n2)[C@@H](C(C)C)NC(=O)[C@@H]2C=CCN2C(=O)[C@H]([C@@H](C)CC)NC(=O)c2csc(n2)[C@@H](C(C)C)NC(=O)[C@@H]2C=CCN2C1=O	> 100	–	> 100	–
CC[C@H](C)[C@@H]1NC(=O)c2csc(n2)[C@@H](C(C)C)NC(=O)[C@@H]2CCCCN2C(=O)[C@H]([C@@H](C)CC)NC(=O)c2csc(n2)[C@@H](C(C)C)NC(=O)[C@@H]2CCCCN2C1=O	15 (≈ 18.4 µM)	2	15.8 (≈ 19.4 µM)	66
CC[C@H](C)[C@@H]1NC(=O)c2csc(n2)[C@@H](C(C)C)NC(=O)[C@@H]2CCN2C(=O)[C@H]([C@@H](C)CC)NC(=O)c2csc(n2)[C@@H](C(C)C)NC(=O)[C@@H]2CCN2C1=O	> 100	–	> 100	–
